Source: ChEMBL document CHEMBL3271946, “Synthesis and adrenoreceptor blocking action of aziridinium ions derived from phenoxybenzamine and dibenamine” (J Med Chem, 1976)
Calls of active or inactive are those of the source. No cut-off for these calls is given here.

What was measured:
[1] = Half life in krebs solution assessed as hydrolysis at 0.003 M at 37 degC; assay type: physicochemical
Vas deferens = test: Blockade of serotonin-induced response in rat vas deferens after 3 mins; assay type: functional, tissue-based
[2] = molecular target: T1, Adrenergic receptor alpha (Rattus norvegicus) (UniProt P15823+P23944+P43140+P22086+P19328+P22909); test: Antagonist activity at alpha-adrenergic receptor in blockade of norepinephrine-induced response in rat vas deferens after 3 mins measured after compound washout; assay type: tissue-based
[3] = molecular target: T1, Adrenergic receptor alpha (Rattus norvegicus); test: Antagonist activity at alpha-adrenergic receptor in blockade of norepinephrine-induced response in rat vas deferens after 3 mins; assay type: tissue-based
[4] = Half life in 80% aqueous Me2CO solution assessed as compound cyclization at 5x10'-4 M; assay type: physicochemical; settings: 80% aqueous acetone (Me2CO) solution
[5] = Half life in 0.025 M NaHCo3 solution assessed as compound cyclization at 5x10'-4 M; assay type: physicochemical

| SMILES | half-life at 0.003 M [1] [min] | inhibition (Vas deferens) | inhibition [2] | inhibition [3] | half-life at 500 µM [4] [min] | half-life at 500 µM [5] [min] |
| --- | --- | --- | --- | --- | --- | --- |
| [O-][Cl+3]([O-])([O-])[O-].c1ccc(C[N+]2(Cc3ccccc3)CC2)cc1 | 14 | Active | Active | Active |  |  |
| CC(COc1ccccc1)N(CCCl)Cc1ccccc1.Cl (stereo not drawn) [PHENOXYBENZAMINE HYDROCHLORIDE] |  | Active | Active | Active | 0.61 | 2.3 |
| CC(COc1ccccc1)[N+]1(Cc2ccccc2)CC1.[O-][Cl+3]([O-])([O-])[O-] (stereo not drawn) | 19 | Active | Active | Active |  |  |
| Cl.ClCCN(Cc1ccccc1)Cc1ccccc1 |  | Active | Active | Active | 1.6 | 6.1 |
